This is an account of results in US12502440B2, “Cross-linking compounds and methods of use thereof” (North Carolina State University, priority 2019, dated 2025).

Common to all, as to format: biochemical
Experiment [1] concerns β-glucosidase from almonds. The experiment in a line: Indigogenic reaction with β-glucosidase from almonds.
The next experiment deals with rat liver homogenate. The experiment can be described thus: Indigoid-dye formation in rat liver homogenate. Particulars: indoxyl 1 mM in rat liver homogenate, 5% DMF, 37° C., 24 h; ε = 1.27 × 10^4 M^−1 cm^−1 measured for 4. As to the method: Finally, indigoid-dye formation was carried out in rat liver homogenate (Table 1, rightmost column).
Reactions in rat liver homogenate. An indoxyl compound in DMF (5 μL, 20 mM) was mixed with rat liver homogenate (95 μL). The reaction mixture was incubated at 37° C. for 24 h. After allowing to cool to room temperature, the reaction mixture was diluted with DMF (900 μL). The mixture was heated at 70° C. for 2 min and then centrifuged for 2 min. The supernatant was separated from any precipitate. This extraction procedure was repeated two or three times with DMF (100-500 μL). The combined supernatant (1500-1800 μL) was analyzed by absorption spectroscopy.

The target of experiment [2] is T1, β-glucosidase from Agrobacterium (Agrobacterium sp., UniProt P12614).
T1 construct: purchased Megazyme
T1 sequence (P12614 1-459): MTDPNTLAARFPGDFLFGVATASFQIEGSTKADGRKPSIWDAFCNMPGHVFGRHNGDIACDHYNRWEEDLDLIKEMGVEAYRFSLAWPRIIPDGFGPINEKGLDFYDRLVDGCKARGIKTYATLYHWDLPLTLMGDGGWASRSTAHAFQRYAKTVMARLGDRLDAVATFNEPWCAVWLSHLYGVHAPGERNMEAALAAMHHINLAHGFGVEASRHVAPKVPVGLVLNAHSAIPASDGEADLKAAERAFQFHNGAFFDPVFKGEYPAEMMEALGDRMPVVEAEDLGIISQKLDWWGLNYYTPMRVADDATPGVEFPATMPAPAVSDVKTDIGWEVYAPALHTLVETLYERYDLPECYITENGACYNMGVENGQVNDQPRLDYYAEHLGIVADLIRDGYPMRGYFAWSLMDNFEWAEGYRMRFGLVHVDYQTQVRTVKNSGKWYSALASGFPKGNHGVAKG
The experiment can be described thus: Indigogenic reaction with β-glucosidase from Agrobacterium. The protocol: Next, the β-glucosidase from Agrobacterium sp. was investigated as the trigger enzyme for indigoid dye formation. […] The reaction was carried out using the enzyme (200 nM) and indoxyl-glucoside 33 (100 μM) in phosphate buffer (pH 4-9, containing 2% DMF) at 37° C. […] Note that with 200 nM enzyme and 100 μM substrate, complete reaction requires 500 turnovers of each enzyme.
Reactions with β-glucosidase from Agrobacterium. An indoxyl compound in DMF (2 μL, 5 mM) and β-glucosidase from Agrobacterium in 10 mM phosphate buffer [2 μL, 10 μM, pH 7.0, containing 50 mM NaCl and 0.6 M (NH4)2SO4] were mixed with 50 mM phosphate buffer (96 μL, pH 7.0). The reaction mixture was incubated at 37° C. for 2 h and then centrifuged for 3 min. Any precipitate was separated from the supernatant and dissolved in DMF (200 μL). The resulting solution was analyzed by absorption spectroscopy. The experiment was repeated three times.

The mark [3] stands for this setting: indoxyl 1 mM, enzyme 1 unit/mL, 0.01M acetate buffer pH 5, 5% DMF, 37° C., 16-19 h, ε = 1.27 × 10^4 M^−1 cm^−1 measured for 4.
Setting [4] is: as E4 but ε measured for 43 (footnote g).
Setting [5] is: indoxyl 100 μM, enzyme 200 nM, 0.05M phosphate buffer pH 7.0, 2% DMF, 37° C., 2 h, three repeats, ε = 1.27 × 10^4 M^−1 cm^−1 measured for 4.

Values joined by “and” are separate entries in the source; they are usually repeats but may differ in a detail not shown here. Equal values may be shown once.

Consider `COC(=O)COc1c(Br)cc2[nH]cc(O[C@@H]3O[C@H](CO)[C@@H](O)[C@H](O)[C@H]3O)c2c1Br` [compound 24, 4,6-Dibromo-5-(methoxycarbonyl)methoxy-1H-indol-3-yl β-D-glucopyranoside], for which the “Yield (%) of indigoid dye, β-glucosidase from almonds” value (“Yield (%) … from almonds” for short) in experiment [1] (as E1 but ε measured for 43 (footnote g)) amounted to 59%; in experiment [1] (setting [3]), 122%. In the experiment on rat liver homogenate, the “Yield (%) of indigoid dye, rat liver homogenate” value (shortened to “Yield (%) … rat liver homogenate”) was under 5%. For the same molecule, the “Yield (%) of indigoid dye, β-glucosidase from Agrobacterium” value (“Yield (%) … from Agrobacterium” below) in experiment [2] (setting [4]) was 102 + 3%; in experiment [2] (setting [5]) it was 209 ± 6%.

Turning to `C#CCOc1ccc2[nH]cc(O[C@@H]3O[C@H](CO)[C@@H](O)[C@H](O)[C@H]3O)c2c1` [compound 25, 5-Propargyloxy-1H-indol-3-yl β-D-glucopyranoside], the “Yield (%) … from almonds” value in experiment [1] (setting [3]) is under 5%. Also, in the experiment on rat liver homogenate, the “Yield (%) … rat liver homogenate” value is listed as 11%. For the same molecule, the “Yield (%) … from Agrobacterium” value in experiment [2] (setting [5]) is on record as 37 ± 2%.

Turning to “5-bromo-4-chloroindoxyl β-glucoside [compound 42, reference compound]”, the “Yield (%) … from almonds” value in experiment [1] (as E1 but ε = 2.00 × 10^4 M^−1 cm^−1 reported for 5,5′-dibromo-4,4′-dichloroindigo (footnote e)) was 74% and 74^e %. Besides, in the experiment on rat liver homogenate, the “Yield (%) … rat liver homogenate” value came out at 65%. In experiment [2] (as E4 but ε = 2.00 × 10^4 M^−1 cm^−1 reported for 5,5′-dibromo-4,4′-dichloroindigo (footnote e)), the “Yield (%) … from Agrobacterium” value was 116% and 116 ± 8^e %.

Regarding `COc1nc(Oc2ccc3[nH]cc(O[C@@H]4O[C@H](CO)[C@@H](O)[C@H](O)[C@H]4O)c3c2Br)nc(N2CCOCC2)n1` [compound 20, 4-Bromo-5-[(4-methoxy-6-morpholino-1,3,5-triazin-2-yl)oxy]-1H-indole-3-yl β-D-glucopyranoside], the “Yield (%) … rat liver homogenate” value in the experiment on rat liver homogenate is recorded as under 5%. The “Yield (%) … from Agrobacterium” value in experiment [2] (setting [5]) came out at 150 ± 3%.

With “5-[(Benzylcarbamoyl)oxy)]-1H-indole-3-yl β-D-glucopyranoside [compound 16]”, in experiment [1] (setting [3]), the “Yield (%) … from almonds” value was 24%. In the experiment on rat liver homogenate, the “Yield (%) … rat liver homogenate” value is reported as 9%.

Take `COc1nc(Oc2c(Br)cc3[nH]cc(O[C@@H]4O[C@H](CO)[C@@H](O)[C@H](O)[C@H]4O)c3c2Br)nc(N2CCOCC2)n1` [compound 21, 4,6-Dibromo-5-[(4-methoxy-6-morpholino-1,3,5-triazin-2-yl)oxy]-1H-indole-3-yl β-D-glucopyranoside]: the “Yield (%) … rat liver homogenate” value with rat liver homogenate was under 5%. The “Yield (%) … from Agrobacterium” value in experiment [2] (setting [4]) is given as 31 ± 2%; in experiment [2] (setting [5]), 63 ± 4%.

Regarding `COC(=O)COc1ccc2[nH]cc(O[C@@H]3O[C@H](CO)[C@@H](O)[C@H](O)[C@H]3O)c2c1Br` [compound 23, 4-Bromo-5-(methoxycarbonyl)methoxy-1H-indol-3-yl β-D-glucopyranoside], in experiment [1] (setting [3]), the “Yield (%) … from almonds” value turned out to be 68%. Also, the “Yield (%) … rat liver homogenate” value in the experiment on rat liver homogenate is on record as under 5%. For the same molecule, in experiment [2] (setting [5]), the “Yield (%) … from Agrobacterium” value was 84 ± 4%.

Consider `COc1nc(Oc2ccc3[nH]cc(O[C@@H]4O[C@H](CO)[C@@H](O)[C@H](O)[C@H]4O)c3c2)nc(N2CCOCC2)n1` [compound 19, 5-[(4-Methoxy-6-morpholino-1,3,5-triazin-2-yl)oxy]-1H-indole-3-yl β-D-glucopyranoside], for which the “Yield (%) … from almonds” value in experiment [1] (setting [3]) is under 1%. The “Yield (%) … rat liver homogenate” value in the experiment with rat liver homogenate is given as under 5%. In experiment [2] (setting [5]), the “Yield (%) … from Agrobacterium” value was 46 + 5%.

In the case of `COC(=O)COc1ccc2[nH]cc(OC3O[C@H](CO)[C@@H](O)[C@H](O)[C@H]3O)c2c1` (stereo partly drawn) [compound 22, 5-(Methoxycarbonyl)methoxy-1H-indol-3-yl-D-glucopyranoside], the “Yield (%) … from almonds” value in experiment [1] (setting [3]) was under 1%. Moreover, the “Yield (%) … rat liver homogenate” value with rat liver homogenate is under 5%. Further, the “Yield (%) … from Agrobacterium” value in experiment [2] (setting [5]) is 30 ± 6%.

With `OC[C@H]1O[C@@H](Oc2c[nH]c3cc(Br)c(OC[C@@H]4[C@@H]5CCC#CCC[C@@H]54)c(Br)c23)[C@H](O)[C@@H](O)[C@@H]1O` [compound 30, 5-{[(1R,8S,9s)-Bicyclo[6.1.0]non-4-yn-9-yl]methoxy}-4,6-dibromo-1H-indole-3-yl β-D-glucopyranoside], the “Yield (%) … from Agrobacterium” value in experiment [2] (setting [4]) was 10% and 10 ± 0.4%; in experiment [2] (setting [5]), 21 ± 1%.
